In brackets after ≈: the same amount, converted by molar mass.

The test system of assay [1] is S. aureus. Nature of the assay: Known antibacterial activity of literature chalcones used for QSAR. Format: cell-based, Staphylococcus aureus. Particulars: Aexp = 0.1 + log (k/MIC), k = 1.250. The procedure:
The QSAR studies were carried out on 48 chalcones, including 10 synthesized azulenyl-chalcones, in order to identify the physicochemical parameter responsible for their antimicrobial activity against Staphylococcus aureus. The geometry optimization of the molecules was completed using PCModel and MOPAC programs. The descriptors were calculated using MOPAC, PRECLAV, and DRAGON software, and the descriptors and QSAR equations were selected using the PRECLAV algorithm. The best QSAR model was chosen based on the statistical parameters such as the square of the correlation coefficient (r^2), the Fischer’s value of significance (F), and the standard error of estimate(s).
Quantitative structure−activity relationship (QSAR) studies involving 38 chalcone derivatives (Table 7) with known antibacterial activity against S. aureus were developed. These studies were based upon observed activity and molecular descriptors. […] Two QSAR studies were performed: (i) one in which all 48 molecules were included in the calibration set and (ii) another with an external validation test. For the latter, 10 molecules were randomly chosen to be part of the validation test, whereas the rest were part of the calibration set. The result of the external validation depends strongly, among other things, on the procedures for the extraction of the calibration and validation sets from the initial database.

Assay [2] concerns S. aureus. More on the design: method as in PMID 15801857, PMID 19275612, PMID 15142563. The note with it: literature chalcones Nr. Crtl. 1-38 of Table 7; cited from earlier work.

As for `COc1cc(/C=C/C(=O)c2ccc(Cl)cc2)cc(OC)c1O` [Nr. Crtl. 2], the Aexp with S. aureus [1] is recorded as 0.498. In addition, in the assay on S. aureus [2], the MIC was 500 µg/mL (≈ 1570 µM).

Regarding `COc1ccc(/C=C/C(=O)c2ccc(Cl)cc2)cc1O` [Nr. Crtl. 26], the Aexp with S. aureus [1] stood at 1.401. Moreover, the MIC in the assay on S. aureus [2] was 62.5 µg/mL (≈ 216 µM).

Regarding `O=C(/C=C/c1ccc(O)c(O)c1)c1ccccc1` [Nr. Crtl. 17], in the assay on S. aureus [1], the Aexp was 1.100. Further, the MIC with S. aureus [2] is 125 µg/mL (≈ 520 µM).

With `O=C(O)c1ccc(C(=O)/C=C/c2cc(C(F)(F)F)cc(C(F)(F)F)c2)cc1` [Nr. Crtl. 37], in the assay on S. aureus [1], the Aexp is listed as 2.896. Also, the MIC in the assay with S. aureus [2] is 2 µg/mL (≈ 5.15 µM).

As to `O=C(/C=C/c1cccc(O)c1)c1ccccc1` [Nr. Crtl. 6], the Aexp in the assay with S. aureus [1] was found to be 0.799. In addition, the MIC in the assay with S. aureus [2] was 250 µg/mL (≈ 1110 µM).

On to `COc1cc(/C=C/C(=O)c2ccc(Cl)cc2)ccc1O` [Nr. Crtl. 9], for which the Aexp in the assay on S. aureus [1] came to 0.799. Moreover, in the assay with S. aureus [2], the minimal inhibitory concentration (MIC) was 250 µg/mL (≈ 866 µM).

Take `O=C(O)c1ccc(C(=O)/C=C/c2ccccc2C(F)(F)F)cc1` [Nr. Crtl. 4]: in the assay on S. aureus [1], the Aexp was 0.720. Moreover, in the assay on S. aureus [2], the MIC is 300 µg/mL (≈ 937 µM).

For the compound `O=C(/C=C/c1ccc(Cl)cc1Cl)c1cc(F)c(O)c(F)c1` [Nr. Crtl. 10], the Aexp with S. aureus [1] stood at 1.021. Moreover, the minimum inhibitory concentration (MIC) in the assay on S. aureus [2] was 150 µg/mL (≈ 456 µM).

On to `O=C(O)c1ccc(C(=O)/C=C/c2ccccc2Br)cc1` [Nr. Crtl. 14], for which the Aexp with S. aureus [1] turned out to be 1.021. In addition, the MIC in the assay on S. aureus [2] is 150 µg/mL (≈ 453 µM).

Regarding `O=C(/C=C/c1cc(C(F)(F)F)cc(C(F)(F)F)c1)c1ccc(O)cc1` [Nr. Crtl. 36], the Aexp in the assay on S. aureus [1] came out at 2.720. Moreover, the MIC in the assay with S. aureus [2] is 3 µg/mL (≈ 8.33 µM).

As for `O=C(/C=C/c1cccc(O)c1)c1ccc(Cl)cc1` [Nr. Crtl. 20], the Aexp with S. aureus [1] came out at 1.100. Also, the MIC in the assay on S. aureus [2] is 125 µg/mL (≈ 483 µM).

Consider `O=C(/C=C/c1ccc(O)cc1)c1ccc(Cl)cc1` [Nr. Crtl. 21], for which, in the assay on S. aureus [1], the Aexp was 1.100. For the same compound, in the assay on S. aureus [2], the MIC is 125 µg/mL (≈ 483 µM).

Consider `O=C(/C=C/c1ccccc1O)c1ccccc1` [Nr. Crtl. 27], for which the Aexp in the assay on S. aureus [1] stood at 1.401. Further, in the assay on S. aureus [2], the MIC is 62.5 µg/mL (≈ 279 µM).

Take `COc1cccc(/C=C/C(=O)c2ccc(Cl)cc2)c1O` [Nr. Crtl. 8]: the Aexp in the assay on S. aureus [1] is reported as 0.799. For the same compound, the MIC in the assay with S. aureus [2] is 250 µg/mL (≈ 866 µM).

With `O=C(/C=C/c1ccccc1O)c1ccc(Cl)cc1` [Nr. Crtl. 19], the Aexp in the assay on S. aureus [1] was found to be 1.100. Moreover, the MIC with S. aureus [2] was 125 µg/mL (≈ 483 µM).

Take `O=C(O)c1ccc(C(=O)/C=C/c2cccc([N+](=O)[O-])c2)cc1` [Nr. Crtl. 5]: in the assay on S. aureus [1], the Aexp is 0.720. In addition, the minimal inhibitory concentration (MIC) with S. aureus [2] is 300 µg/mL (≈ 1010 µM).

`O=C(O)c1ccc(C(=O)/C=C/c2cc(Cl)cc(Cl)c2)cc1` [Nr. Crtl. 29]: in the assay with S. aureus [1], the Aexp is listed as 1.595. Also, the MIC in the assay on S. aureus [2] is 40 µg/mL (≈ 125 µM).

For the compound `O=C(O)c1ccc(C(=O)/C=C/c2ccc(C(F)(F)F)cc2)cc1` [Nr. Crtl. 11], the Aexp with S. aureus [1] was 1.021. The MIC in the assay with S. aureus [2] is 150 µg/mL (≈ 468 µM).

As to `O=C(/C=C/c1cccc(Br)c1)c1ccc(O)cc1` [Nr. Crtl. 33], the Aexp in the assay on S. aureus [1] amounted to 1.896. The MIC with S. aureus [2] was 20 µg/mL (≈ 66 µM).

In the case of `O=C(O)c1ccc(C(=O)/C=C/c2cccc(Br)c2)cc1` [Nr. Crtl. 24], in the assay on S. aureus [1], the Aexp was found to be 1.322. For the same compound, in the assay on S. aureus [2], the MIC was 75 µg/mL (≈ 226 µM).

`COc1ccc(/C=C/C(=O)c2ccccc2)cc1O` [Nr. Crtl. 7]: the Aexp with S. aureus [1] amounted to 0.799. Further, in the assay on S. aureus [2], the MIC was 250 µg/mL (≈ 983 µM).

Consider `O=C(/C=C/c1ccc(Cl)cc1Cl)c1ccc(O)c(F)c1` [Nr. Crtl. 3], for which the Aexp with S. aureus [1] is recorded as 0.720. For the same compound, the MIC with S. aureus [2] is 300 µg/mL (≈ 964 µM).

As for `O=C(/C=C/c1ccc(Cl)cc1Cl)c1ccc(O)cc1` [Nr. Crtl. 31], the Aexp with S. aureus [1] stood at 1.896. Moreover, the minimal inhibitory concentration (MIC) in the assay on S. aureus [2] was 20 µg/mL (≈ 68.2 µM).

On to `COc1cccc(/C=C/C(=O)c2ccccc2)c1O` [Nr. Crtl. 18], for which, in the assay on S. aureus [1], the Aexp came to 1.100. In addition, in the assay with S. aureus [2], the MIC is 125 µg/mL (≈ 492 µM).

Take `O=C(O)c1ccc(C(=O)/C=C/c2cccc(Cl)c2)cc1` [Nr. Crtl. 23]: the Aexp in the assay with S. aureus [1] came to 1.322. Besides, in the assay on S. aureus [2], the MIC was 75 µg/mL (≈ 262 µM).

Consider `O=C(/C=C/c1ccc(O)cc1)c1ccccc1` [Nr. Crtl. 16], for which the Aexp in the assay with S. aureus [1] worked out at 1.100. The minimal inhibitory concentration (MIC) in the assay on S. aureus [2] is 125 µg/mL (≈ 557 µM).

Consider `O=C(/C=C/c1c(Cl)ccc(Cl)c1Cl)c1ccc(O)cc1` [Nr. Crtl. 35], for which the Aexp in the assay on S. aureus [1] is recorded as 2.197. Moreover, in the assay on S. aureus [2], the MIC is 10 µg/mL (≈ 30.5 µM).

As for `O=C(O)c1ccc(C(=O)/C=C/c2ccccc2Cl)cc1` [Nr. Crtl. 13], in the assay on S. aureus [1], the Aexp was 1.021. For the same compound, the MIC in the assay on S. aureus [2] is 150 µg/mL (≈ 523 µM).

For `O=C(O)c1ccc(C(=O)/C=C/c2ccc(Cl)cc2)cc1` [Nr. Crtl. 12], the Aexp in the assay with S. aureus [1] was determined as 1.021. The MIC in the assay on S. aureus [2] is 150 µg/mL (≈ 523 µM).

For `O=C(O)c1ccc(C(=O)/C=C/c2cc(F)cc(F)c2)cc1` [Nr. Crtl. 15], in the assay with S. aureus [1], the Aexp was determined as 1.021. Moreover, the minimal inhibitory concentration (MIC) with S. aureus [2] was 150 µg/mL (≈ 520 µM).

For `O=C(O)c1ccc(C(=O)/C=C/c2cc(Br)cc(Br)c2)cc1` [Nr. Crtl. 38], in the assay on S. aureus [1], the Aexp was found to be 2.896. For the same compound, the MIC in the assay with S. aureus [2] is 2 µg/mL (≈ 4.88 µM).

Regarding `COc1cc(/C=C/C(=O)c2ccccc2)ccc1O` [Nr. Crtl. 1], the Aexp in the assay on S. aureus [1] was found to be 0.498. The MIC in the assay on S. aureus [2] is 500 µg/mL (≈ 1970 µM).

On to `O=C(/C=C/c1cccc(Cl)c1Cl)c1ccc(O)cc1` [Nr. Crtl. 34], for which the Aexp in the assay on S. aureus [1] stood at 2.021. Further, the MIC in the assay with S. aureus [2] is 15 µg/mL (≈ 51.2 µM).

Turning to `O=C(O)c1ccc(C(=O)/C=C/c2ccc(Cl)cc2Cl)cc1` [Nr. Crtl. 30], the Aexp in the assay with S. aureus [1] amounted to 1.595. Besides, the MIC with S. aureus [2] is 40 µg/mL (≈ 125 µM).

With `Cc1cc(C)cc(/C=C/C(=O)c2ccc(C(=O)O)cc2)c1` [Nr. Crtl. 25], the Aexp in the assay with S. aureus [1] came out at 1.322. Also, the MIC with S. aureus [2] was 75 µg/mL (≈ 268 µM).

As for `O=C(/C=C/c1ccc(O)c(O)c1)c1ccc(Cl)cc1` [Nr. Crtl. 22], the Aexp in the assay on S. aureus [1] was found to be 1.100. Also, the MIC in the assay with S. aureus [2] is 125 µg/mL (≈ 455 µM).

As for `O=C(O)c1ccc(C(=O)/C=C/c2cccc(C(F)(F)F)c2)cc1` [Nr. Crtl. 28], the Aexp in the assay on S. aureus [1] amounted to 1.595. In addition, the MIC with S. aureus [2] is 40 µg/mL (≈ 125 µM).

As to `O=C(/C=C/c1ccc(Cl)cc1Cl)c1ccc(O)cc1F` [Nr. Crtl. 32], the Aexp in the assay on S. aureus [1] turned out to be 1.896. In addition, in the assay on S. aureus [2], the minimal inhibitory concentration (MIC) was 20 µg/mL (≈ 64.3 µM).

Values taken from article PMC8911025, “Design, Synthesis, and Biological Evaluation of New Azulene-Containing Chalcones” (Materials, 2022).
